The nature of this data set: Molar enthalpy of transition or fusion. To be noted: Adiabatic calorimetry.

± gives the expanded uncertainty stated by the source.

As to `CCCCn1cc[n+](C)c1.O=S(=O)([O-])C(F)(F)F` [1-butyl-3-methylimidazolium trifluoromethanesulfonate], the “Molar enthalpy of transition or fusion” value (Crystal 1) was found to be 4.644 ± 0.00956 kcal/mol and the “Molar enthalpy of transition or fusion” value (Crystal 2) was 0.00311 ± 0.000239 kcal/mol.

These data come from the NIST ThermoML archive (doi:10.1016/j.tca.2010.08.002).
